Assay results reported in patent publication US20230263822A1, “MODULATION OF FACTOR 11 EXPRESSION” (Ionis Pharmaceuticals, Inc., priority 2008, published 2023).
Strand notation (5' to 3'): a small letter for the sugar, then the base; units joined by * are phosphorothioate-linked, units joined directly phosphodiester-linked; [ ] holds rarer units or linkages, { } end groups; capitals alone tell only the bases. e = 2'-O-(2-methoxyethyl) (MOE); [5mC] = 5-methylcytosine; d = 2'-deoxy (DNA)

Experiments:
human Factor 11 mRNA [1] = test: Dose-dependent inhibition of human Factor 11 in HepB3 cells, electroporation (Example 7); type: cell-based; conditions: for percent inhibition of human Factor 11 mRNA relative to untreated control cells: ~16 hours
Experimental: The gapmers were also transfected via electroporation and their dose dependent inhibition of human Factor 11 mRNA was measured. Cells were plated at a density of 20,000 cells per well and transfected via electroporation with 41.15 nM, 123.457 nM, 370.37 nM, 1111.11 nM, 3333.33 nM, and 10,000 nM concentrations of antisense oligonucleotide, as specified in Table 15. After a treatment period of approximately 16 hours, RNA was isolated from the cells and human Factor 11 mRNA levels were measured by quantitative real-time PCR. Human Factor 11 primer probe set RTS 2966 was used to measure mRNA levels. Factor 11 mRNA levels were adjusted according to total RNA content, as measured by RIBOGREEN. Results are presented as percent inhibition of human Factor 11, relative to untreated control cells.

human Factor 11 mRNA [2] = test: Dose-dependent inhibition of human Factor 11 in HepG2 cells, lipofectin 2.34-75 nM (Example 5); type: cell-based; conditions: for percent inhibition of human Factor 11 mRNA relative to untreated control cells: ~16 hours
Experimental: Cells were plated at a density of 10,000 cells per well and transfected using lipofectin reagent with 2.34 nM, 4.69 nM, 9.375 nM, 18.75 nM, 37.5 nM, and 75 nM concentrations of antisense oligonucleotide, as specified in Table 11. After a treatment period of approximately 16 hours, RNA was isolated from the cells and human Factor 11 mRNA levels were measured by quantitative real-time PCR. Human Factor 11 primer probe set RTS 2966 was used to measure mRNA levels. Factor 11 mRNA levels were adjusted according to total RNA content, as measured by RIBOGREEN. Results are presented as percent inhibition of human Factor 11, relative to untreated control cells.

Factor 11 protein = Factor 11 protein in monkey plasma by sandwich ELISA (Example 46); type: in vivo, cynomolgus monkeys; conditions: cynomolgus monkeys, 25 mg/kg
Experimental: Groups, each consisting of two male and two female monkeys, were injected subcutaneously with 25 mg/kg of ISIS 416850, ISIS 449709, ISIS 445522, ISIS 449710, ISIS 449707, ISIS 449711, ISIS 449708, 416858, and ISIS 445531. Antisense oligonucleotide was administered to the monkeys at 25 mg/kg three times per week for week 1 and 25 mg/kg twice per week for weeks 2 to 8. A control group, consisting of two male and two female monkeys was injected subcutaneously with PBS according to the same dosing regimen. Body weights were taken 14 days and 7 days before the start of treatment and were then measured weekly throughout the treatment period. Blood samples were collected 14 days and 5 days before the start of treatment and subsequently several times during the dosing regimen for PT and aPTT measurements, and measurement of various hematologic factors. On day 55, the monkeys were euthanized by exsanguination while under deep anesthesia, and organs harvested for further analysis.
Plasma samples from all monkey groups taken on different days were analyzed by a sandwich-style ELISA assay (Affinity Biologicals Inc.) using an affinity-purified polyclonal anti-Factor 11 antibody as the capture antibody and a peroxidase-conjugated polyclonal anti-Factor 11 antibody as the detecting antibody. Monkey plasma was diluted 1:50 for the assay. Peroxidase activity was expressed by incubation with the substrate o-phenylenediamine. The color produced was quantified using a microplate reader at 490 nm and was considered to be proportional to the concentration of Factor 11 in the samples.
The results are presented in Table 147, expressed as percentage reduction relative to that of the PBS control.

Substance	IC50 (human Factor 11 mRNA [1]) [nM]	percent inhibition of human Factor 11 mRNA relative to untreated control cells (human Factor 11 mRNA [1]; 41.15 nM) [%]	percent inhibition of human Factor 11 mRNA relative to untreated control cells (human Factor 11 mRNA [1]; 123.457 nM) [%]	percent inhibition of human Factor 11 mRNA relative to untreated control cells (human Factor 11 mRNA [1]; 370.37 nM) [%]	percent inhibition of human Factor 11 mRNA relative to untreated control cells (human Factor 11 mRNA [1]; 1111.11 nM) [%]	percent inhibition of human Factor 11 mRNA relative to untreated control cells (human Factor 11 mRNA [1]; 3333.33 nM) [%]	percent inhibition of human Factor 11 mRNA relative to untreated control cells (human Factor 11 mRNA [1]; 10000 nM) [%]	IC50 (human Factor 11 mRNA [2]) [nM]	percent inhibition of human Factor 11 mRNA relative to untreated control cells (human Factor 11 mRNA [2]; 2.34 nM) [%]	percent inhibition of human Factor 11 mRNA relative to untreated control cells (human Factor 11 mRNA [2]; 4.69 nM) [%]	percent inhibition of human Factor 11 mRNA relative to untreated control cells (human Factor 11 mRNA [2]; 9.375 nM) [%]	percent inhibition of human Factor 11 mRNA relative to untreated control cells (human Factor 11 mRNA [2]; 18.75 nM) [%]	percent inhibition of human Factor 11 mRNA relative to untreated control cells (human Factor 11 mRNA [2]; 37.5 nM) [%]	percent inhibition of human Factor 11 mRNA relative to untreated control cells (human Factor 11 mRNA [2]; 75 nM) [%]	Factor 11 protein levels in plasma (Factor 11 protein)
416825 (antisense GCCCTTCATGTCTAGGTCCA; 5-10-5 gapmer, further chemistry not given here) [compound 416825]	160	32	40	48	75	90	92	13	4	22	39	57	79	89	
416826 (antisense ATGCCCTTCATGTCTAGGTC; 5-10-5 gapmer, further chemistry not given here) [compound 416826]	780	0	0	34	61	87	92	15	15	22	32	54	76	90	
416838 (antisense GCAACCGGGATGATGAGTGC; 5-10-5 gapmer, further chemistry not given here) [compound 416838]	1200	12	9	28	40	77	88	10	21	37	50	63	74	83	
416864 (antisense GGCAGCGGACGGCATTGGTG; 5-10-5 gapmer, further chemistry not given here) [compound 416864]	2200	4	3	6	35	75	87	15	13	34	42	65	68	80	
416892 (antisense GCCCTTCATGTCTAGGTCCA; 3-14-3 chimeric gapmer, further chemistry not given here) [compound 416892]	610	9	12	28	65	89	98	9	14	34	49	70	84	93	
416925 (antisense GGTGCACAGTTTCTGGCAGG; 3-14-3 gapmer chemistry, further chemistry not given here) [compound 416925]	200	27	39	50	73	88	96	13	24	34	45	56	67	72	
416999 (antisense GCACAGTTTCTGGCAGGCCT; 2-13-5 gapmer chemistry, further chemistry not given here) [compound 416999]	160	31	45	62	78	94	97	14	10	26	42	62	72	80	
ISIS 416850: MOE gapmer, nucleobases 1275 to 1318 of SEQ ID NO: 1 (Table 8) (antisense TGCACAGTTTCTGGCAGGCC; MOE gapmer, wing and gap sizes not given here)															time-dependent decrease in protein levels
ISIS 416858: MOE gapmer, nucleobases 1275 to 1318 of SEQ ID NO: 1 (Table 8) (antisense ACGGCATTGGTGCACAGTTT; MOE gapmer, wing and gap sizes not given here)															time-dependent decrease in protein levels
ISIS 445522: 5-8-5 or 6-8-6 MOE microwalk gapmer (Table 44) (antisense eG*e[5mC]*eA*e[5mC]*eA*dG*dT*dT*dT*d[5mC]*dT*dG*dG*e[5mC]*eA*eG*eG*e[5mC])															time-dependent decrease in protein levels
ISIS 449709: 3-8-3, 4-8-4, 2-10-2, 3-10-3 or 4-10-4 MOE microwalk gapmer (Table 46) (antisense eG*e[5mC]*eA*e[5mC]*dA*dG*dT*dT*dT*d[5mC]*dT*dG*dG*d[5mC]*eA*eG*eG*e[5mC])															time-dependent decrease in protein levels
